This experiment concerns the target EcPNP (Escherichia coli purine nucleoside phosphorylase) (Escherichia coli, UniProt P0ABP8). As to conditions: phosphate co-substrate (50 mM potassium phosphate), 100 mM HEPES pH 7.4, 25 °C.

EcPNP (Escherichia coli purine nucleoside phosphorylase), sequence (P0ABP8 2-239): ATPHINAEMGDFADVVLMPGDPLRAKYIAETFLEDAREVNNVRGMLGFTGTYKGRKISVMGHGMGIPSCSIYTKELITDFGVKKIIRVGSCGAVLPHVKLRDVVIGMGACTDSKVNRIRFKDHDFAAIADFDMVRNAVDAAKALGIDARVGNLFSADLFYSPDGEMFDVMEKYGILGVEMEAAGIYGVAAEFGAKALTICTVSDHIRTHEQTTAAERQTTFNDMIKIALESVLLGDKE

As usually defined, the Km is the substrate concentration at which the rate is half of its maximum. Turning to `Nc1nc(F)nc2c1ncn2[C@@H]1O[C@H](CO)[C@@H](O)[C@@H]1O` [F-araA, 9-β-D-arabinofuranosyl-2-F-adenine], the Km is approximately 950 µM.

Source of the values: paper PMC7039746 (Cancer chemotherapy and pharmacology, 2020).
